Assay results as given in patent US12258336B2, “Preparation of seimicarbazide-sensitive amine oxidase inhibitor and use thereof” (SHANGHAI ENNOVABIO PHARMACEUTICALS CO., LTD., priority 2018, dated 2025).
Read-outs that look alike come from different tables or passages of the source.

What was measured:
Type in all cases: in vivo
[1] = system: LPS-induced inflammatory disease model in rats; assay: LPS-induced ocular inflammation model: protein concentration and cell number in aqueous humor; conditions: rat, LPS footpad injection, 6 mg/kg oral 1 h before induction, 24 hours after induction, mean±SEM
Protocol: (§1) 22 rats (7-8 weeks, 220-250 g) were divided into 3 groups, which were control group (6), model group (8) and compound treated group (8). For the model group and compound treated group, ocular inflammation was induced by a single injection of 8 μg/100 μL lipopolysaccharide (Sigma-Aldrich-L2880) into the footpad. The rats were grouped according to their body weight 1 h before induction. Example 4 compound (6 mg/kg, 10 mL/kg) or vehicle (10 mL/kg) were orally administered respectively. 24 hours after induction, the anterior aqueous humor was collected and the eyeballs were removed to dissect the retina. Ocular inflammation was quantitatively evaluated by measuring the protein concentration and cell number in the aqueous humor. qPCR method was used to verify changes in the expression of ocular retinal inflammation-related genes.
10 μL of aqueous humor was diluted in 40 μL of PBS and mixed, then 25 μL of mixture was mixed with 75 μL of PBS, and centrifuged at 300 g for 5 min at 4° C. 55 μL of supernatant was aspirated carefully and the protein concentration was determined according to the method described in the BCA Protein Assay Kit (Pierce-23227); after the remaining sample was resuspended, 40 μL of cell suspension was added into 100 μL of 1% FBS/PBS to analyze and count live cells using NovoCyte 3130 flow cytometry after excluding cell debris.

[2] = molecular target: T1, SSAO/VAP-1 (Rattus norvegicus, UniProt O08590); assay: Inhibitory activity on SSAO/VAP-1 in animal tissues after oral administration; conditions: 24 hours post single administration, mean ± SEM
T1 construct: from tissue; host or cells: rat plasma, brain, retina, small intestine, lung, liver, kidney
T1 sequence (O08590 1-763): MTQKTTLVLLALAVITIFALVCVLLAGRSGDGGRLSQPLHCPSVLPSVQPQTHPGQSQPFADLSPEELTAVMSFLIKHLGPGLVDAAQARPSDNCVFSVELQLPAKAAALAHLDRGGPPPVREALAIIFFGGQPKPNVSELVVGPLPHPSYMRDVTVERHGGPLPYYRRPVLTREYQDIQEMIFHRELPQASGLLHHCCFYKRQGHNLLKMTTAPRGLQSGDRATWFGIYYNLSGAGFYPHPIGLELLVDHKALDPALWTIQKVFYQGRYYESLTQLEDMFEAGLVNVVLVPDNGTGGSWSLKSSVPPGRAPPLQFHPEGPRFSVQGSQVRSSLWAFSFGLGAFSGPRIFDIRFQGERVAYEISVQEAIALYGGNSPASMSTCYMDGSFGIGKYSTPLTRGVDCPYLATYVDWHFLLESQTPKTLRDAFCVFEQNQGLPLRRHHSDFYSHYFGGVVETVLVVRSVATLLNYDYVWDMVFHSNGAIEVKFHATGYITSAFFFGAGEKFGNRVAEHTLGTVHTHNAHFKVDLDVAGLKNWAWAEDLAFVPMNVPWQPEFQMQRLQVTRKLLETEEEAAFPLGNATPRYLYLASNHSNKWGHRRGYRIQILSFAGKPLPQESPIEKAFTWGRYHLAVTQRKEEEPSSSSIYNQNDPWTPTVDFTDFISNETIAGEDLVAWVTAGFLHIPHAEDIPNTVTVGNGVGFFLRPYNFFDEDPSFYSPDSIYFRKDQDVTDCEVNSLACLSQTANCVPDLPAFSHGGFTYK
Protocol: MAO-Glo Assay kit (Promega, V1402) was used to determine the activity of SSAO in animal tissues. After test compounds were adminstered to the animal, SSAO enzyme activity was calculated by measuring the activity of the monoamine oxidases in the animal tissue homogenate that was insensitive to MAO inhibitors Clogyline and Pargyline. The compounds were orally administered to rats at different doses, and same volume of vehicle was orally administered to control animals. Animal plasma, brain, retina, small intestine, lung, liver, and kidney were respectively collected 24 hours after administration (the animals were perfused with PBS before the collection of small intestine, lung, liver, and kidney) and stored in a −80° C. refrigerator until analysis. Each tissue was homogenized in tissue homogenate lysis buffer (20 mM HEPES, pH 7.4, 150 mM NaCl, 1 mM EDTA, 1 mM EGTA, 1% Triton X-100 and 1× Roche Complete protease inhibitor tablet). The homogenate was centrifuged at 12000 rpm at 4° C. for 30 minutes to remove tissue fragments. 5 μL of supernatant and 2 μL of mixture of Clogyline (10 μM) and Pargyline (10 μM) were incubated for 10 minutes at room temperature. Then 2 μL of substrate from MAO-Glo assay kit was added to the mixture, and reacted at room temperature for 60 minutes. Detection reagents were added to quench the reaction according to instructions. The fluorescein data was read by Biotek Neo2. The activity of monoamine oxidase in tissues that is not sensitive to MAO inhibitors was used to represent the activity of SSAO. Percentage of SSAO activity in administered animals was compared with that of control animals to calculate the compound inhibition rate.

[3] = system: ALOX5AP, SOCS3 and TLR7 gene expression in retina; assay: LPS-induced ocular inflammation model: qPCR of inflammation-related genes in retina; conditions: rat, 6 mg/kg oral, compared with model group
Protocol: as §1
• 1) Primers were synthesized, with the information shown as follows:
• 2) Retinal RNA was extracted according to operating instructions of RNA extraction kit (RNeasy Mini Kit, Qiagen-74104), and then the RNA was reverse-transcribed into cDNA (High Capacity cDNA Reverse Transcription Kits, ABI-4374966). The obtained cDNA was diluted 10 times to serve as qPCR reaction template. According to instructions of Power SYBR Green kit (ABI-A25918), qPCR reaction was performed on CFX384 Real-Time qPCR equipment. Quantitative analysis of expression changes for each gene expression was performed using CFX Maestro software by ΔΔCt method, with UBC as internal housekeeping gene.

[4] = brain, read-out: remaining SSAO activity percentage (SSAO activity %), Brain
[5] = kidney, read-out: remaining SSAO activity percentage (SSAO activity %), kidney
[6] = liver, read-out: remaining SSAO activity percentage (SSAO activity %), Liver
[7] = lung, read-out: remaining SSAO activity percentage (SSAO activity %), Lung
[8] = plasma, read-out: remaining SSAO activity percentage (SSAO activity %), Plasma
[9] = retina, read-out: remaining SSAO activity percentage (SSAO activity %), Retina
[10] = small intestine, read-out: remaining SSAO activity percentage (SSAO activity %), Small intestine

NC/C(=C\F)COc1cnc(N2CCN(C3COC3)CC2)nc1 [Example 4, (E)-3-fluoro-2-(((2-(4-(oxbutan-3-yl)piperazin-1-yl)pyrimidin-5-yl)oxo)methyl)prop-2-en-1-amine]
cell number in aqueous humor ([1]; model group 48.28±21.46): 5.07±0.80 *10^4 cell/mL | protein concentration in aqueous humor ([1]; model group 9730.04±1232.30): 7275.44 ± 622.66 µg/mL | remaining activity at 0.005 mg/kg [2, 4]: 98.3 ± 25.4% | remaining activity at 0.005 mg/kg [2, 5]: 99.2 ± 4.1% | remaining activity at 0.005 mg/kg [2, 6]: 108 ± 33.5% | remaining activity at 0.005 mg/kg [2, 7]: 94.9 ± 17.2% | remaining activity at 0.005 mg/kg [2, 8]: 61.7 ± 8.2% | remaining activity at 0.005 mg/kg [2, 9]: 65 ± 14% | remaining activity at 0.025 mg/kg [2, 4]: 143 ± 68.3% | remaining activity at 0.025 mg/kg [2, 5]: 58.7 ± 12.1% | remaining activity at 0.025 mg/kg [2, 6]: 14.4 ± 8.1% | remaining activity at 0.025 mg/kg [2, 7]: 64 ± 20.3% | remaining activity at 0.025 mg/kg [2, 8]: 58.6 ± 4.2% | remaining activity at 0.025 mg/kg [2, 9]: 49.1 ± 7.1% | remaining activity at 0.12 mg/kg [2, 4]: 75.4 ± 7.4% | remaining activity at 0.12 mg/kg [2, 5]: 46.3 ± 3.5% | remaining activity at 0.12 mg/kg [2, 6]: 40.1 ± 8.2% | remaining activity at 0.12 mg/kg [2, 7]: 39.8 ± 11.3% | remaining activity at 0.12 mg/kg [2, 8]: 33.7 ± 1.9% | remaining activity at 0.12 mg/kg [2, 9]: 25.1 ± 5.3% | remaining activity at 0.12 mg/kg [2, 10]: 96.9 ± 21.7% | remaining activity at 0.6 mg/kg [2, 4]: 26.5 ± 11.8% | remaining activity at 0.6 mg/kg [2, 5]: 26.2 ± 10.1% | remaining activity at 0.6 mg/kg [2, 6]: 3 ± 7.6% | remaining activity at 0.6 mg/kg [2, 7]: 14.1 ± 3.8% | remaining activity at 0.6 mg/kg [2, 8]: 12.9 ± 2.2% | remaining activity at 0.6 mg/kg [2, 9]: 8 ± 1.2% | remaining activity at 0.6 mg/kg [2, 10]: 38.9 ± 3.2% | remaining activity at 3 mg/kg [2, 4]: 22.1 ± 7.7% | remaining activity at 3 mg/kg [2, 5]: 0.7 ± 1.8% | remaining activity at 3 mg/kg [2, 6]: 5.3 ± 3.2% | remaining activity at 3 mg/kg [2, 7]: 4.6 ± 2.5% | remaining activity at 3 mg/kg [2, 8]: 1.8 ± 0.2% | remaining activity at 3 mg/kg [2, 9]: 5.2 ± 2.4% | remaining activity at 3 mg/kg [2, 10]: 11.1 ± 4.4% | remaining activity at 15 mg/kg [2, 4]: 4 ± 1.7% | remaining activity at 15 mg/kg [2, 5]: 2.4 ± 1.3% | remaining activity at 15 mg/kg [2, 6]: -2.4 ± 5.4% | remaining activity at 15 mg/kg [2, 7]: 2.2 ± 0.2% | remaining activity at 15 mg/kg [2, 8]: 1.1 ± 0.4% | remaining activity at 15 mg/kg [2, 9]: 3 ± 2.2% | remaining activity at 15 mg/kg [2, 10]: 1.1 ± 0.9% | expression level of ALOX5AP gene in retina [3]: significantly reduce | expression level of SOCS3 gene in retina [3]: significantly reduce | expression level of TLR7 gene in retina [3]: significantly reduce
